# Like-named read-outs stand apart in the source and are kept apart here.
# What was measured:
# CYP2d2 = biological target: T1, CYP2d2 (Rattus norvegicus, UniProt P10634)
# T1 sequence (P10634 1-500): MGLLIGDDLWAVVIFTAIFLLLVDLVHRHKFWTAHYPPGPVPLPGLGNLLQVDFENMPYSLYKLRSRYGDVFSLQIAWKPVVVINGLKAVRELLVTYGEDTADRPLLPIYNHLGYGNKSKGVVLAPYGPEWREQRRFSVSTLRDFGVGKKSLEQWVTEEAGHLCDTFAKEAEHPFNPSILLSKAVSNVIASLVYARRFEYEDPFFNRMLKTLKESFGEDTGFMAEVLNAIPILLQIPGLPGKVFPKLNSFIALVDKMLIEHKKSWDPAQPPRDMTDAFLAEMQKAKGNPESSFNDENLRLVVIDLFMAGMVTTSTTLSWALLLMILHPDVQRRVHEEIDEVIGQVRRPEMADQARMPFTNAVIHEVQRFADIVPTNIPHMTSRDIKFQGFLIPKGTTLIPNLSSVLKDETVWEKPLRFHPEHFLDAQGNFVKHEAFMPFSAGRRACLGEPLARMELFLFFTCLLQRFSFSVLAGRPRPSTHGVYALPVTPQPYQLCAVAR
# Experimental: (§1) The effect of the Zhicaowu–Hezi combination on CYP450 enzymes in RLM was evaluated by assessing the metabolic clearance rates of theophylline, metoprolol, bupropion, mephenytoin (CYP2c13), chlorzoxazone, testosterone, and diclofenac.
# (§2) On day 15, the rats were humanely euthanized, and liver tissues were excised for microsomal preparation. […] Livers from each group were repeatedly washed with ice-cold phosphate buffered saline (PBS). […] Subsequently, they were blotted dry with filter paper, weighed, and homogenized by adding 4 mL of ice-cold PBS per gram of liver tissue. The mixture was homogenized in an ice bath. The liver homogenate was subjected to centrifugation at 10,000 RPM for 20 min at 4°C. The resulting supernatant was then combined with an ice-cold 88-mmol/L CaCl2 solution at a 1:1 ratio, and the mixture was homogenized in an ice bath for 5 min. The resulting solution was then centrifuged at 25,000 × g for 30 min at 4°C. The supernatant was discarded and the precipitate was repeatedly resuspended in PBS–20% glycerol buffer. The precipitate was then stored in a separate bottle at −80°C for backup. The protein concentration of the prepared RLM was determined using a bicinchoninic acid protein assay kit.
# (§3) Preincubation was conducted for 5 min in a water bath at 37°C, after which NADPH (1 mmol/L) was added, and incubation continued for 30 min at 37°C. Once the incubation period elapsed, the reaction was terminated by the addition of an ice-cold IS-containing acetonitrile solution. The samples were vortexed for 2 min and centrifuged at 15,000 RPM for 10 min. The resulting supernatant was filtered through a 0.22-μm organic microporous membrane, and 20 μL of the filtered solution was injected into the HPLC assay. To prevent the organic solvents from inducing or inhibiting the enzyme, the volume fraction of organic solvents in the entire incubation system was maintained at 1%. […] The inhibitor group was added with corresponding inhibitor, while all other procedures remained identical.
# CYP2c11 = biological target: T2, CYP2c11 (Rattus norvegicus, UniProt P08683)
# T2 sequence (P08683 1-500): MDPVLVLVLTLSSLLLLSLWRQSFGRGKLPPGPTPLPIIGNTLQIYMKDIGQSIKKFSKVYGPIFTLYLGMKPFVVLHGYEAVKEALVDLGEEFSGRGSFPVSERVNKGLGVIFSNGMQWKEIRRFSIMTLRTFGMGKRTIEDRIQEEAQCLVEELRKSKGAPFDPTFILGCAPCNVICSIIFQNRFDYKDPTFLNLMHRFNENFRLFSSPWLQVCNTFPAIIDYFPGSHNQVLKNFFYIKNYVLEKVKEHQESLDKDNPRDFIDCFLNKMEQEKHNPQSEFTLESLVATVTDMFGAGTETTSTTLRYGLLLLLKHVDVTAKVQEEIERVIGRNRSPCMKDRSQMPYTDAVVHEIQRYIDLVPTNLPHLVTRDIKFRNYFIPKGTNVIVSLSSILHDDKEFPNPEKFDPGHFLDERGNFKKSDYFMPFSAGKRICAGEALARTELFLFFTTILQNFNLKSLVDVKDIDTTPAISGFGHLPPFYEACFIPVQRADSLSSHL
# Experimental: as §1, §2, §3
# CYP2c13 = biological target: T3, CYP2c13 (Rattus norvegicus, UniProt P20814); assay: RLM incubation: metabolic clearance rate of mephenytoin (CYP2c13); conditions: RLM 0.5 mg/mL, 30 min 37°C, inhibitor added, blank control 15.97 ± 0.68, n = 3
# T3 sequence (P20814 1-490): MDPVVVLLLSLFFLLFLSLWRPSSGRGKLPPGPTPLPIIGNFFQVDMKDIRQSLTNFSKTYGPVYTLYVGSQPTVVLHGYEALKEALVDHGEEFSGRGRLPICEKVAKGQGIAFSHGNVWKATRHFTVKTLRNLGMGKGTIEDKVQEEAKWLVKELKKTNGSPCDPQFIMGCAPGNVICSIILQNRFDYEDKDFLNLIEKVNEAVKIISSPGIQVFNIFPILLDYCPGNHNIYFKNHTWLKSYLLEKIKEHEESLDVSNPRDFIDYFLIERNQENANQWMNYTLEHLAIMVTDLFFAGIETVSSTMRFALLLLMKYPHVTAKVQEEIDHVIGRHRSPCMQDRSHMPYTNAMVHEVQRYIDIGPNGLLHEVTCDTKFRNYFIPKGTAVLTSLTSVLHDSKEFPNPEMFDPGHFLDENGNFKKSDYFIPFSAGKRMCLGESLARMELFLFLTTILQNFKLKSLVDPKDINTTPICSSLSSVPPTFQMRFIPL
# Experimental: as §1, §2, §3
# CYP2b1 = biological target: T4, CYP2b1 (Rattus norvegicus, UniProt P00176); assay: RLM incubation: metabolic clearance rate of bupropion (CYP2b1); conditions: RLM 0.5 mg/mL, 30 min 37°C, inhibitor added, blank control 7.92 ± 0.60, n = 3
# T4 sequence (P00176 1-491): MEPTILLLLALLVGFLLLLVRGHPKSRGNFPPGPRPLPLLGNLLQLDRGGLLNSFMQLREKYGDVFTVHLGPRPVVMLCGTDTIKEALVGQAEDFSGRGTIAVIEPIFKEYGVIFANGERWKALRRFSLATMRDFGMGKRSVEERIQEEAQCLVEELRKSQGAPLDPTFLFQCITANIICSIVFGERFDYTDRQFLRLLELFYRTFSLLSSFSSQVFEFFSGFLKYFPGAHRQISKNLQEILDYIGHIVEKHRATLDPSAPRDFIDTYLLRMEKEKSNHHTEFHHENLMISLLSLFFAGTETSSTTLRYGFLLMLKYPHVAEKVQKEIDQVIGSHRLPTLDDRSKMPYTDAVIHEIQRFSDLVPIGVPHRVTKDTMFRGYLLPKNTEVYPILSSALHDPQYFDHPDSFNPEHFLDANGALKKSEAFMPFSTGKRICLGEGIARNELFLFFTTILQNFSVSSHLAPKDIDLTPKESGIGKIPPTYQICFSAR
# Experimental: as §1, §2, §3
SMILES,CYP2d2 (%) metabolic clearance rate of probe drug (CYP2d2) [%],CYP2c11(%) metabolic clearance rate of probe drug (CYP2c11) [%],CYP2c13(%) metabolic clearance rate of probe drug (CYP2c13) [%],CYP2b1(%) metabolic clearance rate of probe drug (CYP2b1) [%],"CYP2d2 (%) metabolic clearance rate of probe drug (CYP2d2; RLM 0.5 mg/mL, 30 min 37°C, inhibitor added, probe metoprolol, blank control […] ± 2.12, n = 3) [%]","CYP2c11(%) metabolic clearance rate of probe drug (CYP2c11; RLM 0.5 mg/mL, 30 min 37°C, inhibitor added, probe diclofenac, blank control 21.12 ± 3.80, n = 3) [%]"
S=P(N1CC1)(N1CC1)N1CC1 [Thiotepa],12.67 ± 0.65,21.84 ± 2.64,14.43 ± 0.36,2.24 ± 0.16,,
O=c1cc(-c2ccccc2)oc2c1ccc1ccccc12 [α-naphthoflavone],,,16.65 ± 3.04,8.00 ± 0.97,13.12 ± 0.82,23.02 ± 0.55
